Test results published in US11819533B2, “Compositions and methods for the treatment of fungal infections” (Cidara Therapeutics, Inc., priority 2017, dated 2023).
Starred links: 1 amine or outer side, 2 acyl side, 3 side chain; linkers in the order of their positions; H or OH if unused. Positions of bridges follow the written chain, without caps; N, C: chain ends. Non-standard residues stand in square brackets, D forms with d. Residues, ends and D or L forms follow the SMILES beside them. *: point of attachment. Orn(4R-OH,5R-OCH2CH2NMe3+) = C[N+](C)(C)CCO[C@@H](N[*:3])[C@H](O)C[C@H](N[*:1])C(=O)[*:2]; pTerphenylCO(4''-OnC5H11) = CCCCCOc1ccc(-c2ccc(-c3ccc(C(=O)*)cc3)cc2)cc1; Orn(4R-OH,5R-OH) = O=C([C@H](C[C@@H](O)[C@@H](O)N[*:3])N[*:1])[*:2]; hTyr(3S-OH,4S-OH) = N[C@H](C(=O)O)[C@H](O)[C@@H](O)c1ccc(O)cc1; Pro(3S-OH,4S-Me) = C[C@H]1CN[C@H](C(=O)O)[C@H]1O; Hyp = O=C(O)[C@@H]1C[C@@H](O)CN1

Columns and labels:
[1] = PBS buffer drop test (Example 3); type: physicochemical; conditions: 0.50% Tween 80, 0.76% mannitol, 0.125% sodium lactate in 3.5% dextrose solution, pH ~5.5; 2 mg/mL, 0.47 mg/mL in PBS
Description: These solutions were tested for solubility in the PBS drop test, which involved adding the solution dropwise into PBS solution (1:4.3 dilution) and visually observing the resulting solution for any precipitation. PBS buffer serves as a surrogate for plasma, and the PBS drop test is used to evaluate the potential for insolubility as the drug enters the bloodstream at the injection site.

[2] = PBS drop test of CD101 IV formulations (Example 4); type: physicochemical; conditions: 6 mg/mL in 1.25% Tween 80, 5% mannitol, 0.3% glacial acetic acid, pH ~4.5; 0.25 mL into 1 mL PBS
Description: Solubility of CD101-containing formulations with different percentages of Tween 80 (also referred to as polysorbate 80) was evaluated in a “PBS drop test.” This involved preparing a known concentration of CD101 in a formulation and injecting the formulation into PBS to visually examine for precipitation. This test was used to assess if a CD101-containing formulation would remain soluble in blood during IV infusions.
(1) 1.25% Tween 80, 5% mannitol, 0.3% glacial acetic acid, pH ˜4.5
(2) 0.50% Tween 80, 0.76% mannitol, 0.125% sodium lactate in 3.5% dextrose solution, pH ˜5.5
Different concentrations of CD101 acetate were prepared in vehicles (1) and (2) and tested for solubility in the PBS drop test.
Add dropwise the formulated solution into PBS solution (1:4 dilution). Visually observe the resulting solution upon addition for any precipitation.

Candida auris = Candida auris infection in a murine model of disseminated candidiasis; type: in vivo; conditions: immunosuppressed CD-1 mice; for Percent survival at the end of the study: day 14, CD101 20 mg/kg IP, fluconazole 20 mg/kg PO, amphotericin B 0.3 mg/kg IP, doses on day 1 and day 4
Description: Female 6-8 week old CD-1 mice were immunosuppressed with cyclophosphamide (200 mg/kg) 3 days prior to infection and 150 mg/kg 1 day post-infection. On the day of infection, mice were inoculated with 3×10^7 C. auris blastospores via the lateral tail vein. Mice were randomized into 5 groups (n=5 for colony forming units (CFU) and n=10 for survival): CD101 20 mg/kg administered by intraperitoneal (IP) injection, fluconazole 20 mg/kg administered per os (PO), amphotericin B 0.3 mg/kg IP, and a vehicle control. Treatments were administered 2 hours post-infection (day 1) and again on day 4 of the study for a total of 2 doses. Mice were monitored daily and a survival curve was generated. CFU groups were sacrificed on day 8 of the study. One kidney was removed from each mouse, homogenized, plated on potato dextrose agar (PDA), and incubated at 35° C. for 2 days to determine CFU. The remaining survival mice were monitored until the end of the study (day 14).

[3] = system: C. albicans SC-5314 biofilms; assay: Activity against adhesion phase biofilms (prevention), XTT and CSLM; type: cell-based, Candida albicans; conditions: for CSLM biofilm architecture, adhesion phase / Metabolic activity (XTT) of adhesion phase biofilms compared to untreated: 24 h exposure, CD101 0.25 and 1 μg/ml, fluconazole 1 and 4 μg/ml; for Thickness of biofilms, adhesion phase: CSLM, untreated control 36 μm
Description: (§1) C. albicans SC-5314 was used for the current study.
(§2) In this study, biofilms were grown in vitro using a biofilm model (Chandra et al., Nature Protocols 3:1909, 2008) and the effect of CD101 on adhesion phase biofilms (representing prevention of biofilms) or mature phase biofilms (representing treatment of biofilms) was determined.
(§3) Biofilms were formed on silicone elastomer (SE) discs using a catheter-associated-biofilm model (Chandra et al., Nature Protocols 3:1909, 2008; Chandra et al., J. Bacteriol. 183: 5385, 2001; Chandra et al., J. Dental Research 80: 903, 2001). For evaluation of activity against adhesion phase biofilms (prevention), Candida cells were adhered to catheter discs for 90 min. […] For evaluation of activity against mature phase biofilms (treatment), Candida cells were adhered to catheter discs for 90 min, then transferred to fresh media and incubated for a further 24 h to allow formation of biofilms. […] Discs incubated with fluconazole or media alone were used as controls in all experiments.
(§4) At the end of drug exposure in both adhesion and mature phase biofilms, biofilms were quantified by measuring their metabolic activity using XTT assay (Chandra et al., Nature Protocols 3:1909, 2008; Chandra et al., J. Bacteriol. 183: 5385, 2001; Chandra et al., J. Dental Research 80: 903, 2001). Following incubation with drugs, discs were transferred to fresh plates containing phosphate buffered saline with XTT and menadione, incubated for 3 h at 37° C. and optical density was read at 492 nm. Separate batches of biofilms were stained with fluorescent dyes (FUN1™, CONA) and observed under Confocal Scanning Laser Microscope (CSLM) to evaluate biofilm architecture and thickness (Chandra et al., Nature Protocols 3:1909, 2008; Chandra et al., J. Bacteriol. 183: 5385, 2001).

[4] = system: C. albicans SC-5314 biofilms; assay: Activity against mature phase biofilms (treatment), XTT and CSLM; type: cell-based, Candida albicans; conditions: for CSLM biofilm architecture, mature phase / Metabolic activity (XTT) of mature phase biofilms compared to untreated: 24 h exposure of mature biofilms, CD101 0.25 and 1 μg/ml, fluconazole 1 and 4 μg/ml; for Thickness of biofilms, mature phase: CSLM, untreated control 43 μm
Description: as §1, §2, §3, §4

[5] = system: C. albicans SC-5314 biofilms; assay: Time lapse microscopy of biofilm formation; type: cell-based, Candida albicans; conditions: followed up to 16 h
Text: The effective CD101 concentration obtained from the above experiments was used to monitor its effect on biofilm formation in real time using TLM, which involves capturing real-time images of a single frame at specific time intervals, allowing temporal monitoring of the interactions occurring between the drug and Candida biofilms. Captured images were combined in a time sequence, resulting in an animation depicting the sequence of events that occurred with the passage of time. Briefly, the discs with C. albicans (adhered for 90 min as above) were placed in a 35-mm-diameter glass-bottom Petri dish (MatTek Corp., Ashland, MA). […] Phase contrast images for this interaction were captured immediately from 0 h and followed up to 16-17 h on a Leica DMI 6000 B inverted microscope connected to a Retiga EXi Aqua camera (Q-imaging Vancouver British Columbia). To determine the structural changes in the maturing biofilm, both acquisition and analysis of a series of horizontal (xy) optical sections of the biofilm was done using Metamorph Imaging software (Molecular Devices, Downington, PA). Disc incubated with media alone was used as control.

Sprague Dawley rats = assay: 14-day repeat-dose intravenous infusion toxicity study; type: in vivo
Description: The primary purpose of this study was to evaluate the toxicity of CD101 when administered intravenously as a 20-minute infusion into the lateral tail vein of Sprague Dawley rats for fourteen consecutive days. A positive control group (Eraxis®) with a similar structure and pharmacodynamic activity was included in the study design.
The test article, CD101 acetate, was a white to off-white powder. The test article was prepared into dosing formulations for intravenous dose administration. One hundred experimentally naïve Sprague Dawley rats (50 males and 50 females), a minimum of 8 weeks old and weighing 255-318 grams (males) and 192-215 (females) at the outset of the study were assigned to treatment groups as shown in Table 7 below:
All animals were dosed on Days 1 through 3 inclusive. As a result of tail vein irritation observed among all study groups, dose administration was suspended on Day 4 to allow the tails to recover. Dosing resumed on Day 5 and continued for a maximum of ten additional days (Days 5 through 14 inclusive). Animals that could no longer be dosed during this time remained on study.
Male and female Sprague Dawley rats were to receive CD101 acetate at doses of 0, 2, 6 and 20 mg/kg/day (Groups 1, 3, 4 and 5, respectively) or Eraxis® (the positive control article, Group 2) at a dose of 40 mg/kg/day, intravenously as a 20 minute infusion into the left or right lateral tail vein for fourteen consecutive days. During the first three treatment days, all animals were dosed with the first vehicle used on this study (1.75% Tween 80/5% Dextrose: Groups 1 and 3-5; 5% Dextrose: Group 2). As a result of the localized tail swelling observed during the first three days of treatment, study Day 4 served as a drug-free day to alleviate tail vein irritation. Dose administration resumed on Day 5 using a new vehicle (5% Mannitol/2.5% Tween 80/0.3% acetic acid: Groups 1 and 3-5; 5% Mannitol/0.3% acetic acid: Group 2) for the remainder of the treatment period (Days 5-14). Those animals that could no longer be dosed because of severe vein irritation were retained on study, untreated, until the end of the study (Day 15).

Row | Compound | Appearance upon PBS drop test [1] | Time the formulated solution remained soluble in PBS [2] | Average reduction in kidney CFU compared to fluconazole, amphotericin B and vehicle treated groups (Candida auris; 20 mg/kg IP on day 1 and day 4, kidney on day 8) | Percent survival at the end of the study (Candida auris) | CSLM biofilm architecture, adhesion phase [3] | Metabolic activity (XTT) of adhesion phase biofilms compared to untreated [3] | Thickness of biofilms, adhesion phase [3] | CSLM biofilm architecture, mature phase [4] | Metabolic activity (XTT) of mature phase biofilms compared to untreated [4] | Thickness of biofilms, mature phase [4] | Temporal effect on 3 h formed biofilms (time lapse) ([5]; 0.25 μg/ml added after 3 h biofilm formation) | Temporal effect on formation of biofilms (time lapse) ([5]; 0.25 μg/ml added to cells adhered for 90 min) | Incidence of tail vein irritation (Sprague Dawley rats; Days 1-3, first vehicle (1.75% Tween 80 and 5% Dextrose for CD101 acetate; 5% Dextrose for Eraxis), Eraxis 40 mg/kg/day, CD101 acetate 6 and 20 mg/kg/day, males and females) | Vein irritation compared to Groups 1, 3 and 4 (Sprague Dawley rats; Days 5-14, second vehicle (5% Mannitol, 2.5% Tween 80, 0.3% Acetic Acid for CD101 acetate; 5% Mannitol and 0.3% Acetic Acid for Eraxis), Eraxis 40 mg/kg/day, CD101 acetate 20 mg/kg/day) | Animals dosed for less than the intended ten-day duration (Days 5-14) as a result of tail swelling/lesions (Sprague Dawley rats; males, 40 mg/kg/day (Group 2), 20-minute IV infusion, second vehicle 5% Mannitol/0.3% acetic acid)
1 | CCCCCOc1ccc(-c2ccc(-c3ccc(C(=O)N[C@H]4C[C@@H](O)[C@@H](OCC[N+](C)(C)C)NC(=O)[C@@H]5[C@@H](O)[C@@H](C)CN5C(=O)[C@H]([C@@H](C)O)NC(=O)[C@H]([C@H](O)[C@@H](O)c5ccc(O)cc5)NC(=O)[C@@H]5C[C@@H](O)CN5C(=O)[C@H]([C@@H](C)O)NC4=O)cc3)cc2)cc1 [CD101] ({pTerphenylCO(4''-OnC5H11)}-[Orn(4R-OH,5R-OCH2CH2NMe3+)]T[Hyp][hTyr(3S-OH,4S-OH)]T[Pro(3S-OH,4S-Me)]; lactam 1-C) | Clear | at least 1 hour | 3 log | 80% | only remnants of adhered cells, and no biofilm maturation | formed significantly less biofilms | 4 μm | eradicated and showed bulged, deformed/broken cells | significantly less metabolic activity | 24 μm | remained stunted and failed to grow into mature biofilms | only adhered cells with stunted growth, which failed to grow into mature biofilms | – | – | –
2 | CCCCCOc1ccc(-c2ccc(-c3ccc(C(=O)N[C@H]4C[C@@H](O)[C@@H](O)NC(=O)[C@@H]5[C@@H](O)[C@@H](C)CN5C(=O)[C@H]([C@@H](C)O)NC(=O)[C@H]([C@H](O)[C@@H](O)c5ccc(O)cc5)NC(=O)[C@@H]5C[C@@H](O)CN5C(=O)[C@H]([C@@H](C)O)NC4=O)cc3)cc2)cc1 [Eraxis®, Anidulafungin, reference compound] ({pTerphenylCO(4''-OnC5H11)}-[Orn(4R-OH,5R-OH)]T[Hyp][hTyr(3S-OH,4S-OH)]T[Pro(3S-OH,4S-Me)]; lactam 1-C) | – | – | – | – | – | – | – | – | – | – | – | – | highest | only marginally higher | 30%
3 | C[C@@H]1[C@H](O)[C@@H](C)/C=C/C=C/C=C/C=C/C=C/C=C/C=C/[C@H](O[C@@H]2O[C@H](C)[C@@H](O)[C@H](N)[C@@H]2O)C[C@@H]2O[C@](O)(C[C@@H](O)C[C@@H](O)[C@H](O)CC[C@@H](O)C[C@@H](O)CC(=O)O[C@H]1C)C[C@H](O)[C@H]2C(=O)O [amphotericin B, reference compound] | – | – | – | 30% | – | – | – | – | – | – | – | – | – | – | –
4 | OC(Cn1cncn1)(Cn1cncn1)c1ccc(F)cc1F [fluconazole, reference compound] | – | – | – | 0% | did not inhibit biofilm formation | did not inhibit biofilm formation | no effect on biofilm thickness | did not affect Candida biofilms | neither concentrations of fluconazole (1 and 4 μg/ml) affected these biofilms | no effect | – | – | – | – | –
